pIC50: −log10 of the molar value.

A word on the pIC50: it is −log10 of the IC50, conventionally taken in molar units. A low value points to a large IC50.

The test system of one assay is HT-29. Description: Cytotoxicity against human HT-29 cells. The class given is functional, cell-based.
Conditions: not given
In turn, `CC(=O)O[C@@]12CO[C@@H]1C[C@H](O)[C@@]1(C)C(=O)[C@H](O)C3=C(C)[C@@H](OC(=O)[C@H](O)[C@@H](NC(=O)C(C)(C)C)c4ccco4)[C@@H]4OC(=O)O[C@]4([C@@H](OC(=O)c4ccccc4)[C@H]21)C3(C)C` gave a pIC50 of 9.22.

As for `CC(=O)O[C@H]1C(=O)[C@@]2(C)[C@H]([C@H](OC(=O)c3ccccc3)[C@]34OC(=O)O[C@H]3[C@H](OC(=O)[C@H](O)[C@@H](NC(=O)C(C)(C)C)c3ccco3)C(C)=C1C4(C)C)[C@]1(OC(C)=O)CO[C@@H]1C[C@@H]2O`, the pIC50 is 9.22.

For the compound `CC(=O)O[C@@]12CO[C@@H]1C[C@H](O)[C@@]1(C)C(=O)[C@H](O)C3=C(C)[C@@H](OC(=O)[C@H](O)[C@H](C=C(C)C)NC(=O)C(C)(C)C)[C@@H]4OC(=O)O[C@]4([C@@H](OC(=O)c4ccccc4)[C@H]21)C3(C)C`, the pIC50 was 9.30.

As to `CC(=O)O[C@H]1C(=O)[C@@]2(C)[C@H]([C@H](OC(=O)c3ccccc3)[C@]34OC(=O)O[C@H]3[C@H](OC(=O)[C@H](O)[C@H](C=C(C)C)NC(=O)C(C)(C)C)C(C)=C1C4(C)C)[C@]1(OC(C)=O)CO[C@@H]1C[C@@H]2O`, the pIC50 was 8.62.

As for `CCC(=O)O[C@H]1C(=O)[C@@]2(C)[C@H]([C@H](OC(=O)c3ccccc3)[C@]34OC(=O)O[C@H]3[C@H](OC(=O)[C@H](O)[C@H](C=C(C)C)NC(=O)C(C)(C)C)C(C)=C1C4(C)C)[C@]1(OC(C)=O)CO[C@@H]1C[C@@H]2O`, the pIC50 was 9.22.

`CC(=O)O[C@@]12CO[C@@H]1C[C@H](O)[C@@]1(C)C(=O)[C@H](OC(=O)C3CC3)C3=C(C)[C@@H](OC(=O)[C@H](O)[C@H](C=C(C)C)NC(=O)C(C)(C)C)[C@@H]4OC(=O)O[C@]4([C@@H](OC(=O)c4ccccc4)[C@H]21)C3(C)C` showed a pIC50 of 9.00.

`CC(=O)O[C@@]12CO[C@@H]1C[C@H](O)[C@@]1(C)C(=O)[C@H](OC(=O)N(C)C)C3=C(C)[C@@H](OC(=O)[C@H](O)[C@H](C=C(C)C)NC(=O)C(C)(C)C)[C@@H]4OC(=O)O[C@]4([C@@H](OC(=O)c4ccccc4)[C@H]21)C3(C)C` gave a pIC50 of 8.92.

For the compound `C/C=C/C(=O)O[C@H]1C(=O)[C@@]2(C)[C@H]([C@H](OC(=O)c3ccccc3)[C@]34OC(=O)O[C@H]3[C@H](OC(=O)[C@H](O)[C@H](C=C(C)C)NC(=O)C(C)(C)C)C(C)=C1C4(C)C)[C@]1(OC(C)=O)CO[C@@H]1C[C@@H]2O`, the pIC50 is 8.82.

The compound `COC(=O)O[C@H]1C(=O)[C@@]2(C)[C@H]([C@H](OC(=O)c3ccccc3)[C@]34OC(=O)O[C@H]3[C@H](OC(=O)[C@H](O)[C@H](C=C(C)C)NC(=O)C(C)(C)C)C(C)=C1C4(C)C)[C@]1(OC(C)=O)CO[C@@H]1C[C@@H]2O` had a negative-log IC50 (pIC50) of 9.15.

The compound `C/C=C/[C@H](NC(=O)C(C)(C)C)[C@@H](O)C(=O)O[C@@H]1C(C)=C2[C@@H](O)C(=O)[C@@]3(C)[C@H]([C@H](OC(=O)c4ccccc4)[C@@]4(OC(=O)O[C@@H]14)C2(C)C)[C@]1(OC(C)=O)CO[C@@H]1C[C@@H]3O` had a pIC50 of 8.72.

On to `CCCCCC(=O)N[C@@H](C=C(C)C)[C@@H](O)C(=O)O[C@@H]1C(C)=C2[C@@H](OC(=O)C3CC3)C(=O)[C@@]3(C)[C@H]([C@H](OC(=O)c4ccccc4)[C@@]4(OC(=O)O[C@@H]14)C2(C)C)[C@]1(OC(C)=O)CO[C@@H]1C[C@@H]3O`, for which the negative logarithm of the IC50 (pIC50) was 7.80.

For `CCCCCC(=O)N[C@@H](C=C(C)C)[C@@H](O)C(=O)O[C@@H]1C(C)=C2[C@@H](OC(=O)N(C)C)C(=O)[C@@]3(C)[C@H]([C@H](OC(=O)c4ccccc4)[C@@]4(OC(=O)O[C@@H]14)C2(C)C)[C@]1(OC(C)=O)CO[C@@H]1C[C@@H]3O`, the negative logarithm of the IC50 (pIC50) was 8.29.

With `C/C=C/C(=O)O[C@H]1C(=O)[C@@]2(C)[C@H]([C@H](OC(=O)c3ccccc3)[C@]34OC(=O)O[C@H]3[C@H](OC(=O)[C@H](O)[C@H](C=C(C)C)NC(=O)CCCCC)C(C)=C1C4(C)C)[C@]1(OC(C)=O)CO[C@@H]1C[C@@H]2O`, the pIC50 is 7.55.

As to `CC(=O)O[C@@]12CO[C@@H]1C[C@H](O)[C@@]1(C)C(=O)[C@H](O)C3=C(C)[C@@H](OC(=O)[C@H](O)[C@H](CC(C)C)NC(=O)C(C)(C)C)[C@@H]4OC(=O)O[C@]4([C@@H](OC(=O)c4ccccc4)[C@H]21)C3(C)C`, the negative-log IC50 (pIC50) was 8.38.

As for `CC(=O)O[C@H]1C(=O)[C@@]2(C)[C@H]([C@H](OC(=O)c3ccccc3)[C@]34OC(=O)O[C@H]3[C@H](OC(=O)[C@H](O)[C@H](CC(C)C)NC(=O)C(C)(C)C)C(C)=C1C4(C)C)[C@]1(OC(C)=O)CO[C@@H]1C[C@@H]2O`, the pIC50 is 8.82.

In turn, `CCC[C@H](NC(=O)C(C)(C)C)[C@@H](O)C(=O)O[C@@H]1C(C)=C2[C@@H](O)C(=O)[C@@]3(C)[C@H]([C@H](OC(=O)c4ccccc4)[C@@]4(OC(=O)O[C@@H]14)C2(C)C)[C@]1(OC(C)=O)CO[C@@H]1C[C@@H]3O` showed a pIC50 of 8.42.

In turn, `CCC[C@H](NC(=O)C(C)(C)C)[C@@H](O)C(=O)O[C@@H]1C(C)=C2[C@@H](OC(C)=O)C(=O)[C@@]3(C)[C@H]([C@H](OC(=O)c4ccccc4)[C@@]4(OC(=O)O[C@@H]14)C2(C)C)[C@]1(OC(C)=O)CO[C@@H]1C[C@@H]3O` gave a pIC50 of 8.32.

As to `CCC(=O)O[C@H]1C(=O)[C@@]2(C)[C@H]([C@H](OC(=O)c3cccc(N=[N+]=[N-])c3)[C@]3(O)C[C@H](OC(=O)[C@H](O)[C@@H](CC(=O)OC(C)(C)C)C(F)(F)F)C(C)=C1C3(C)C)[C@]1(OC(C)=O)CO[C@@H]1C[C@@H]2O`, the negative logarithm of the IC50 (pIC50) is 9.40.

Compound `CC(=O)O[C@@]12CO[C@@H]1C[C@H](O)[C@@]1(C)C(=O)[C@H](O)C3=C(C)[C@@H](OC(=O)[C@H](O)[C@@H](NC(=O)OC(C)(C)C)C(F)(F)F)C[C@@](O)([C@@H](OC(=O)c4cccc(N=[N+]=[N-])c4)[C@H]21)C3(C)C` gave a pIC50 of 9.15.

Compound `C/C=C/[C@H](NC(=O)C(C)(C)C)[C@@H](O)C(=O)O[C@@H]1C(C)=C2[C@@H](OC(C)=O)C(=O)[C@@]3(C)[C@H]([C@H](OC(=O)c4ccccc4)[C@@]4(OC(=O)O[C@@H]14)C2(C)C)[C@]1(OC(C)=O)CO[C@@H]1C[C@@H]3O` had a pIC50 of 8.52.

`CC(=O)O[C@@H]1C2=C(C)[C@@H](OC(=O)[C@H](O)[C@@H](NC(=O)c3ccc(C)cc3)c3ccccc3)C[C@@](O)([C@@H](OC(=O)c3ccccc3)[C@@H]3[C@]4(OC(C)=O)CO[C@@H]4C[C@H](O)[C@@]3(C)[C@H]1O)C2(C)C` gave a pIC50 of 10.86.

`CC(=O)O[C@@H]1C2=C(C)[C@@H](OC(=O)[C@H](O)[C@@H](NC(=O)OC(C)(C)C)c3ccccc3)C[C@@](O)([C@@H](OC(=O)c3ccccc3)[C@@H]3[C@]4(OC(C)=O)CO[C@@H]4C[C@H](O)[C@@]3(C)[C@H]1O)C2(C)C` showed a negative-log IC50 (pIC50) of 12.73.

As for `CC(=O)O[C@@H]1C2=C(C)[C@@H](OC(=O)[C@H](O)[C@@H](NC(=O)CC(C)(C)C)c3ccccc3)C[C@@](O)([C@@H](OC(=O)c3ccccc3)[C@@H]3[C@]4(OC(C)=O)CO[C@@H]4C[C@H](O)[C@@]3(C)[C@H]1O)C2(C)C`, the pIC50 was 10.98.

`CC(=O)O[C@@H]1C2=C(C)[C@@H](OC(=O)[C@H](O)[C@@H](NC(=O)OCC(C)(C)C)c3ccccc3)C[C@@](O)([C@@H](OC(=O)c3ccccc3)[C@@H]3[C@]4(OC(C)=O)CO[C@@H]4C[C@H](O)[C@@]3(C)[C@H]1O)C2(C)C` showed a pIC50 of 11.76.

Turning to `CC(=O)N[C@@H](c1ccccc1)[C@@H](O)C(=O)O[C@H]1C[C@@]2(O)[C@@H](OC(=O)c3ccccc3)[C@@H]3[C@]4(OC(C)=O)CO[C@@H]4C[C@H](O)[C@@]3(C)[C@@H](O)[C@H](OC(C)=O)C(=C1C)C2(C)C`, the pIC50 is 9.47.

With `CC(=O)O[C@@H]1C2=C(C)[C@@H](OC(=O)[C@H](O)[C@@H](NC(=O)OCc3ccccc3)c3ccccc3)C[C@@](O)([C@@H](OC(=O)c3ccccc3)[C@@H]3[C@]4(OC(C)=O)CO[C@@H]4C[C@H](O)[C@@]3(C)[C@H]1O)C2(C)C`, the negative logarithm of the IC50 (pIC50) was 10.87.

`CCC(C)(C)OC(=O)N[C@@H](c1ccccc1)[C@@H](O)C(=O)O[C@H]1C[C@@]2(O)[C@@H](OC(=O)c3ccccc3)[C@@H]3[C@]4(OC(C)=O)CO[C@@H]4C[C@H](O)[C@@]3(C)[C@@H](O)[C@H](OC(C)=O)C(=C1C)C2(C)C` showed a pIC50 of 12.11.

Compound `CC(=O)O[C@@H]1C2=C(C)[C@@H](OC(=O)[C@H](O)[C@@H](NC(=O)NC(C)(C)C)c3ccccc3)C[C@@](O)([C@@H](OC(=O)c3ccccc3)[C@@H]3[C@]4(OC(C)=O)CO[C@@H]4C[C@H](O)[C@@]3(C)[C@H]1O)C2(C)C` had a pIC50 of 11.18.

Take `CC(=O)O[C@@H]1C2=C(C)[C@@H](OC(=O)[C@H](O)[C@@H](NC(=O)OCC(C)C)c3ccccc3)C[C@@](O)([C@@H](OC(=O)c3ccccc3)[C@@H]3[C@]4(OC(C)=O)CO[C@@H]4C[C@H](O)[C@@]3(C)[C@H]1O)C2(C)C`: the pIC50 is 11.57.

Compound `CCOC(=O)N[C@@H](c1ccccc1)[C@@H](O)C(=O)O[C@H]1C[C@@]2(O)[C@@H](OC(=O)c3ccccc3)[C@@H]3[C@]4(OC(C)=O)CO[C@@H]4C[C@H](O)[C@@]3(C)[C@@H](O)[C@H](OC(C)=O)C(=C1C)C2(C)C` showed a pIC50 of 11.22.

The compound `CC(=O)O[C@@H]1C2=C(C)[C@@H](OC(=O)[C@H](O)[C@@H](NC(=O)OC(C)C)c3ccccc3)C[C@@](O)([C@@H](OC(=O)c3ccccc3)[C@@H]3[C@]4(OC(C)=O)CO[C@@H]4C[C@H](O)[C@@]3(C)[C@H]1O)C2(C)C` had a pIC50 of 12.02.

A further assay relates to HCT-116. As to the kind of experiment: Cytotoxicity against human HCT116 cells after 72 hrs. The class given is functional, cell-based. Conditions: HCT-116, 72 h.
Compound `CC(=O)O[C@H]1C(=O)[C@@]2(C)[C@H]([C@H](OC(=O)c3ccccc3)[C@]3(O)C[C@H](OC(=O)[C@H](O)[C@@H](NC(=O)c4ccccc4)c4ccccc4)C(C)=C1C3(C)C)[C@]1(OC(=O)c3ccccc3)CO[C@@H]1C[C@@H]2O` had a pIC50 of 6.39.

As to `CC(=O)O[C@H]1C(=O)[C@@]2(C)[C@H]([C@H](OC(=O)c3ccccc3)[C@]3(O)C[C@H](OC(=O)[C@H](O)[C@@H](NC(=O)c4ccccc4)c4ccccc4)C(C)=C1C3(C)C)[C@]1(OC(=O)c3ccc(F)cc3)CO[C@@H]1C[C@@H]2O`, the pIC50 is 6.10.
